# Source: patent US20050033056A1, “Hydroxylated indole derivatives and uses thereof” (priority 2001, published 2005)
# Target: T1, CYP2E1 (Homo sapiens, UniProt P05181)
# T1 construct: tissue Gentest Corp. (Woburn, Mass.); host or cells: pooled human liver microsomes
# Test: CYP inhibition in HLM: chlorzoxazone 6-hydroxylation
# Format: in vitro ADME
# Conditions: 10 or 50 μM
# Description: The incubations were carried out in test tubes (12.0×75 mm). The incubation mixtures (250 μL) contained 0.5 mg of HLM protein, 50 (CYP1A2 and CYP2E1) or 25 (CYP2C9, CYP2C19, CYP2D6 and CYP3A4) pmol of recombinant human CYPs, Compound 1 (10 or 50 μM), probe substrate (R—, S-warfarin, chlorzoxazone, S-mephenyloin, or bufuralol) at different concentrations, and 0.5 mg of NADPH in 50 mM Tris buffer containing 15 mM MgCl2 (pH 7.4). Compound 1 was added to the reaction mixture 5 minutes prior to the addition of the probe substrate. […]
# The quantification was based on the calibration curves, and the quality control (QC) samples were applied to ensure the quality of the experiments. […]
# 2. […] 6-hydroxychlorzoxazone was monitored by UV at 280 nm.
# Data were acquired and analyzed by ChemStation (Version 6.03, Hewlett Packard, Waldbronn, Germany) for 6-, 7-, and 10-hydroxywarfarin and 6-hydroxychlorzoxazone, and MacQuan (Version 1.6, PE Biosystem, Foster City, Calif.) for 1′-hydroxybufuralol and 4′-hydroxymephenytoin. Quantification was based on peak area ratios of metabolites over the respective IS against the respective concentration of the metabolites. […] The metabolic rates were determined using Excel (Microsoft Office 97, Microsoft Corporation, Redmond, Wash.) or SigmaPlot (Version 6.00, SPSS Inc. Chicago, Ill.). […]
# T1 sequence (P05181 whole entry): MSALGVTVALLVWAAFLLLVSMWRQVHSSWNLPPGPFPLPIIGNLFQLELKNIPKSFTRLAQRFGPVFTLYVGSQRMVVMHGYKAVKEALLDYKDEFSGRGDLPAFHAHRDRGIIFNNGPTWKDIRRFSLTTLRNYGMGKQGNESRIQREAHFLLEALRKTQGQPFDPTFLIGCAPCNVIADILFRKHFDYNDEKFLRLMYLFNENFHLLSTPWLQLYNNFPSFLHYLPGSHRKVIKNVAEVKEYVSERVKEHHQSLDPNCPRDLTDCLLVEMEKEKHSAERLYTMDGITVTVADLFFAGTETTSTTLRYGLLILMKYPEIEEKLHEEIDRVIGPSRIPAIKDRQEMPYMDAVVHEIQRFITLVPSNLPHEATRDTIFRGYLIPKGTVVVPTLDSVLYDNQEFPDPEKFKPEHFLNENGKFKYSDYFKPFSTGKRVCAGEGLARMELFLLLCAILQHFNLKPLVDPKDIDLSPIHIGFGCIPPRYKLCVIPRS
structure (smiles),measurement,value
"CNC(=O)Cc1ccc2ccn(C3CCN(CCc4ccccc4F)CC3)c2c1 [Compound 1, N-methyl-[1-[1-(2-fluorophenethyl)piperidine-4-yl]-1H-indol-6-yl] acetamide]",inhibitory effect on CYP2E1 activity (in words),no inhibitory effect
